According to patent US20200315998A1, “COMPOSITION FOR IMPROVING INTESTINAL BARRIER FUNCTION” (SUNTORY HOLDINGS LIMITED, priority 2017, published 2020):

Test system: Caco-2 cells
Assay: Evaluation of intestinal barrier function improvement: TEER reduction suppression in Caco-2 monolayer with inflammatory cytokines (TNFα, IL-1β, IFNγ)
Type: cell-based, human
Settings: for Synergistic effect (M.V./T/V/) / TEER reduction suppression ratio (%) +gallic acid (actual measurement value) (M.V.) / Synergistic effect (M.V./T.V.): combined use of phenolic compound and gallic acid; for TEER reduction suppression ratio (%) +gallic acid (theoretical value) (T.V.): sum of ratios of phenolic compound alone and gallic acid alone
Source text: The intestinal barrier function improvement effect is indicated by, for example, increase in the electrical resistance value (transepithelial electric resistance: TEER) of the intestinal epithelial cells or suppression of the decrease in the TEER. A substance increasing the TEER or suppressing the decrease thereof has the action of normalizing or strengthening the tight junction in the intestinal epithelial cells. The intestinal barrier function improvement effect is also indicated by decrease in the amount of a substance permeating from the intestinal side of the intestinal epithelial cells to the inside of the body. The person skilled in the art can select a specific method of evaluating the intestinal barrier function improvement effect depending on the purpose. For exarple, as shown in Examples to be described later, a method for measuring TEER using an intestinal permeation model using human intestinal epithelial cells (Caco-2 cells) can be used. Specifically, inflammatory cytokine (TNFα, IL-1β, IFNγ and the like) is added into Caco-2 monolayer cultured cells to produce a state where the intestinal barrier function can be collapsed in human. If the addition of a test substance suppresses the decrease in the TEER as compared with the case where the substance is not added, the test substance can be evaluated to have the intestinal barrier function improvement effect.
Caco-2 cells were cultured for three weeks at 37° C. in Transwell (manufactured by Millicell Corporation) using DMEM (Dulbecco's modified Eagle's medium). A medium was removed from a plate of cultured Caco-2 cells, and the well was washed 3 times with serum-free DMEM. The well was filled with the medium. Then, the transepithelial electrical resistance (TEER) of Caco-2 monolayer cells was measured by Millicell-ERS (manufactured by Millipore Corporation). Cells (TEER≥1000 Ω·cm^2) determined that a sufficient tight junction was formed were selected, and used for the next screening. Then, to test solutions (media) on both apical and basolateral membrane sides, a sample, TNFα (40 ng/mL), IL-1β (20 ng/mL), and IFNγ (10 ng/mL) were added, followed by cultivating for 48 hours. The sample was dissolved in dimethyl sulfoxide (DMSO), and the solution was then added to the test solutions. In this case, a well to which inflammatory cytokine (TNFα, IL-1β, and IFNγ) and the sample were not added was provided as normal. A well to which inflammatory cytokine was added and the sample was not added was provided as control. After the cultivation, TEER was measured again, to evaluate whether the sample suppressed the reduction (decrease) of TEER due to the inflammatory cytokine.
The TEER reduction suppression ratio (%) due to the sample was determined according to the following formula from the TEER values of the well to which the sample was added, normal, and control.
(Calculating formula of TEER reduction suppression ratio) TEER reduction suppression ratio (%)=100×((TEER of well to which sample is added)−(TEER of control))/((TEER of normal)−(TEER of control))
In this evaluation system, as the TEER reduction suppression ratio (%) is higher, an intestinal barrier function improvement effect is higher.

Molecule	Synergistic effect (M.V./T/V/) (each 10 μM)	TEER reduction suppression ratio (%) +gallic acid (actual measurement value) (M.V.) (each 10 μM) [%]	Synergistic effect (M.V./T.V.) (each 1 μM)	TEER reduction suppression ratio (%) +gallic acid (actual measurement value) (M.V.) (each 1 μM) [%]	also measured
Oc1cc(O)c2c(c1)O[C@H](c1ccc(O)c(O)c1)[C@H](O)[C@H]2c1c(O)cc(O)c2c1O[C@H](c1ccc(O)c(O)c1)[C@@H](O)C2 [Procyanidin B1, procyanidin B1]	2.4	74	–	–	TEER reduction suppression ratio (%) +gallic acid (theoretical value) (T.V.) (10 μM each): 31%
Oc1cc(O)c2c(c1)O[C@H](c1ccc(O)c(O)c1)[C@H](O)[C@H]2c1c(O)cc(O)c2c1O[C@H](c1ccc(O)c(O)c1)[C@H](O)C2 [Procyanidin B2, procyanidin B2]	1.5	76	–	–	TEER reduction suppression ratio (%) +gallic acid (theoretical value) (T.V.) (10 μM each): 51%
Oc1cc(O)c2c(c1)O[C@H](c1ccc(O)c(O)c1)[C@@H](O)[C@@H]2c1c(O)cc(O)c2c1O[C@H](c1ccc(O)c(O)c1)[C@@H](O)C2 [Procyanidin B3, procyanidin B3]	1.9	77	–	–	TEER reduction suppression ratio (%) +gallic acid (theoretical value) (T.V.) (10 μM each): 53%
O=c1c(O)c(-c2ccc(O)c(O)c2)oc2cc(O)cc(O)c12 [Quercetin, quercetin, reference compound]	1.7	61	–	–	TEER reduction suppression ratio (sample alone 100 μM, TNFα 40 ng/mL, IL-1β 20 ng/mL, IFNγ 10 ng/mL, 48 hours): 75.0%
O=c1c(O[C@@H]2O[C@H](CO)[C@@H](O)[C@H](O)[C@H]2O)c(-c2ccc(O)c(O)c2)oc2cc(O)cc(O)c12 [Quercetin-3-O-glucopyranoside, quercetin-3-O-glucopyranoside]	1.5	47	–	–	–
C[C@@H]1O[C@@H](OC[C@H]2O[C@@H](Oc3c(-c4ccc(O)c(O)c4)oc4cc(O)cc(O)c4c3=O)[C@H](O)[C@@H](O)[C@@H]2O)[C@H](O)[C@H](O)[C@H]1O [Rutin, rutin]	2.9	45	–	–	–
O=C1c2c(O)cc(O)cc2O[C@H](c2ccc(O)c(O)c2)[C@H]1O [Taxifolin, taxifolin]	2.0	59	–	–	–
O=C(OC1C(OC(=O)c2cc(O)c(O)c(O)c2)[C@H](O)OC2COC(=O)c3cc(O)c(O)c(O)c3-c3c(cc(O)c(O)c3O)C(=O)O[C@H]21)c1cc(O)c(O)c(O)c1 (some centres unmarked) [Tellimagrandin I, tellimagrandin I]	–	–	1.6	92	–
O=c1c(O)cc([C@H]2Oc3cc(O)cc(O)c3C[C@H]2O)cc2c([C@H]3Oc4cc(O)cc(O)c4C[C@H]3O)cc(O)c(O)c12 [Theaflavin, theaflavin]	1.6	98	–	–	–
O=C(O[C@@H]1O[C@H](CO)[C@@H](O)[C@H](O)[C@H]1O)c1cc(O)c(O)c(O)c1 [β-glucogallin]	–	–	2.4	48	–
catechin [Catechin (CA)]	–	–	–	–	Relative value of TEER reduction suppression ratio (Evaluation 1, sample alone 1 μM, catechin (CA) set to 1.0): 1.0; Synergistic effect (relative value of actual measurement value / relative value of theoretical value) (combined use of the phenolic compound with gallic acid, 1 μM each (Table 1)): 2.0
eugeniflorin D2	–	–	1.3	102	TEER reduction suppression ratio (%) +gallic acid (theoretical value) (T.V.) (1 μM each): 80%
stenophyllanin A	–	–	1.7	95	TEER reduction suppression ratio (%) +gallic acid (theoretical value) (T.V.) (1 μM each): 56%
stenophyllanin B	–	–	1.3	82	TEER reduction suppression ratio (%) +gallic acid (theoretical value) (T.V.) (1 μM each): 66%
